Assay results reported in PubChem BioAssay AID2060483 (Molecular Pharmacology Branch, DTP, NCI, 2025).

System: K24384-001-R-PDC complex spheroids, viability
Assay: Anticancer human tumor K24384-001-R-PDC patient-derived pancreatic adenocarcinoma cell line growth inhibition [GQUAD]
Details: for IC50: curve of first compound; for viability, T/C: stronger effect = lower value
Summary of the method: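 Tumor cells were grown as complex spheroids with HUVEC endothelial cells and mesenchymal stem cells as stroma. G-quadruplex stabilizers were combined with targeted agents over half-log dilutions from near the clinical Cmax, or from 10 microM.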

[1] = second compound 0.0316 µM, first compound 0.0316 µM
[2] = second compound 0.0316 µM, first compound 0.1 µM
[3] = second compound 0.0316 µM, first compound 0.316 µM
[4] = second compound 0.0316 µM, first compound 1 µM
[5] = second compound 0.0316 µM, first compound 3.16 µM
[6] = second compound 0.0316 µM, first compound 10 µM
[7] = second compound 0.1 µM, first compound 0.0316 µM
[8] = second compound 0.1 µM, first compound 0.1 µM
[9] = second compound 0.1 µM, first compound 0.316 µM
[10] = second compound 0.1 µM, first compound 1 µM
[11] = second compound 0.1 µM, first compound 3.16 µM
[12] = second compound 0.1 µM, first compound 10 µM
[13] = second compound 0.316 µM, first compound 0.0316 µM
[14] = second compound 0.316 µM, first compound 0.1 µM
[15] = second compound 0.316 µM, first compound 0.316 µM
[16] = second compound 0.316 µM, first compound 1 µM
[17] = second compound 0.316 µM, first compound 3.16 µM
[18] = second compound 0.316 µM, first compound 10 µM
[19] = second compound 1 µM, first compound 0.0316 µM
[20] = second compound 1 µM, first compound 0.1 µM
[21] = second compound 1 µM, first compound 0.316 µM
[22] = second compound 1 µM, first compound 1 µM
[23] = second compound 1 µM, first compound 3.16 µM
[24] = second compound 1 µM, first compound 10 µM
[25] = second compound 3.16 µM, first compound 0.0316 µM
[26] = second compound 3.16 µM, first compound 0.1 µM
[27] = second compound 3.16 µM, first compound 0.316 µM
[28] = second compound 3.16 µM, first compound 1 µM
[29] = second compound 3.16 µM, first compound 3.16 µM
[30] = second compound 3.16 µM, first compound 10 µM
[31] = second compound 10 µM, first compound 0.0316 µM
[32] = second compound 10 µM, first compound 0.1 µM
[33] = second compound 10 µM, first compound 0.316 µM
[34] = second compound 10 µM, first compound 1 µM
[35] = second compound 10 µM, first compound 3.16 µM
[36] = second compound 10 µM, first compound 10 µM
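Also: spheroids exposed to compounds for seven days.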

## CC(C)(O)C1CCC(Nc2ccc3ncc(-c4cccc(C(F)(F)F)c4)n3n2)CC1 (stereo not drawn) + Cc1[nH]c2ccc(F)cc2c1-c1nc2c3cccnc3c3ncccc3c2[nH]1
Second compound 0.0316 µM
  IC50: 1630 nM
Second compound 0.1 µM
  IC50: 2030 nM
Second compound 0.316 µM
  IC50: 1930 nM
Second compound 1 µM
  IC50: 1710 nM
Second compound 3.16 µM
  IC50: 447 nM
Second compound 10 µM
  IC50: 548 nM
[1]
  viability, T/C: 95.6%
[2]
  viability, T/C: 104%
[3]
  viability, T/C: 111%
[4]
  viability, T/C: 59.3%
[5]
  viability, T/C: 28.3%
[6]
  viability, T/C: 46.5%
[7]
  viability, T/C: 75.3%
[8]
  viability, T/C: 105%
[9]
  viability, T/C: 90.4%
[10]
  viability, T/C: 68.1%
[11]
  viability, T/C: 39.8%
[12]
  viability, T/C: 33.2%
[13]
  viability, T/C: 103%
[14]
  viability, T/C: 97.9%
[15]
  viability, T/C: 108%
[16]
  viability, T/C: 73.4%
[17]
  viability, T/C: 28.5%
[18]
  viability, T/C: 36.6%
[19]
  viability, T/C: 76.7%
[20]
  viability, T/C: 99%
[21]
  viability, T/C: 106%
[22]
  viability, T/C: 68.8%
[23]
  viability, T/C: 26.2%
[24]
  viability, T/C: 30.9%
[25]
  viability, T/C: 64.6%
[26]
  viability, T/C: 70.4%
[27]
  viability, T/C: 56.2%
[28]
  viability, T/C: 32.8%
[29]
  viability, T/C: 15.4%
[30]
  viability, T/C: 13.8%
[31]
  viability, T/C: 70.1%
[32]
  viability, T/C: 85.7%
[33]
  viability, T/C: 57.3%
[34]
  viability, T/C: 39.4%
[35]
  viability, T/C: 12.7%
[36]
  viability, T/C: 14%

## COc1ncnc(C2CC2)c1-c1ncc2cnn(Cc3ccc(-c4nc(C(F)(F)F)cn4C(C)C)cc3)c2n1 + Cc1[nH]c2ccc(F)cc2c1-c1nc2c3cccnc3c3ncccc3c2[nH]1
Second compound 0.0316 µM
  IC50: > 10000 nM
Second compound 0.1 µM
  IC50: > 10000 nM
Second compound 0.316 µM
  IC50: > 10000 nM
Second compound 1 µM
  IC50: > 10000 nM
Second compound 3.16 µM
  IC50: > 10000 nM
Second compound 10 µM
  IC50: > 10000 nM
[1]
  viability, T/C: 106%
[2]
  viability, T/C: 109%
[3]
  viability, T/C: 122%
[4]
  viability, T/C: 97.5%
[5]
  viability, T/C: 104%
[6]
  viability, T/C: 128%
[7]
  viability, T/C: 98.4%
[8]
  viability, T/C: 98.7%
[9]
  viability, T/C: 103%
[10]
  viability, T/C: 85.5%
[11]
  viability, T/C: 122%
[12]
  viability, T/C: 134%
[13]
  viability, T/C: 90.8%
[14]
  viability, T/C: 107%
[15]
  viability, T/C: 107%
[16]
  viability, T/C: 95.6%
[17]
  viability, T/C: 96.7%
[18]
  viability, T/C: 118%
[19]
  viability, T/C: 86.3%
[20]
  viability, T/C: 96.8%
[21]
  viability, T/C: 95.8%
[22]
  viability, T/C: 104%
[23]
  viability, T/C: 95.2%
[24]
  viability, T/C: 95.7%
[25]
  viability, T/C: 81.8%
[26]
  viability, T/C: 89.3%
[27]
  viability, T/C: 73.2%
[28]
  viability, T/C: 88.7%
[29]
  viability, T/C: 95.1%
[30]
  viability, T/C: 84.1%
[31]
  viability, T/C: 72.5%
[32]
  viability, T/C: 102%
[33]
  viability, T/C: 64.3%
[34]
  viability, T/C: 73.1%
[35]
  viability, T/C: 96.1%
[36]
  viability, T/C: 75.5%

## CC1COCCN1c1cc(C2(S(C)(=N)=O)CC2)nc(-c2ccnc3[nH]ccc23)n1 (stereo not drawn) + Cc1cnc(CNC(=O)c2c(=O)c3ccc(N4CCCN(C)CC4)nc3n3c2sc2ccccc23)cn1
Second compound 0.0316 µM
  IC50: 2490 nM
Second compound 0.1 µM
  IC50: 2190 nM
Second compound 0.316 µM
  IC50: 5270 nM
Second compound 1 µM
  IC50: < 31.6 nM
Second compound 3.16 µM
  IC50: < 31.6 nM
Second compound 10 µM
  IC50: < 31.6 nM
[1]
  viability, T/C: 85.6%
[2]
  viability, T/C: 100%
[3]
  viability, T/C: 83.5%
[4]
  viability, T/C: 55.7%
[5]
  viability, T/C: 55%
[6]
  viability, T/C: 30.4%
[7]
  viability, T/C: 69%
[8]
  viability, T/C: 90.7%
[9]
  viability, T/C: 64.5%
[10]
  viability, T/C: 56.8%
[11]
  viability, T/C: 50.5%
[12]
  viability, T/C: 39.6%
[13]
  viability, T/C: 57.8%
[14]
  viability, T/C: 64.2%
[15]
  viability, T/C: 56.1%
[16]
  viability, T/C: 52.3%
[17]
  viability, T/C: 59.8%
[18]
  viability, T/C: 40.1%
[19]
  viability, T/C: 41.5%
[20]
  viability, T/C: 45.2%
[21]
  viability, T/C: 45.3%
[22]
  viability, T/C: 42.7%
[23]
  viability, T/C: 43.7%
[24]
  viability, T/C: 32.5%
[25]
  viability, T/C: 41.9%
[26]
  viability, T/C: 50.4%
[27]
  viability, T/C: 37.8%
[28]
  viability, T/C: 43.1%
[29]
  viability, T/C: 37.6%
[30]
  viability, T/C: 25.8%
[31]
  viability, T/C: 34.5%
[32]
  viability, T/C: 23.2%
[33]
  viability, T/C: 31.9%
[34]
  viability, T/C: 35.2%
[35]
  viability, T/C: 35.5%
[36]
  viability, T/C: 21.6%

## COc1ccc([C@@H](O)c2cc(-c3ncnc4cc(N5CCOCC5)ccc34)c(F)cc2Cl)nn1 + Cc1cnc(CNC(=O)c2c(=O)c3ccc(N4CCCN(C)CC4)nc3n3c2sc2ccccc23)cn1
Second compound 0.0316 µM
  IC50: 1240 nM
Second compound 0.1 µM
  IC50: 497 nM
Second compound 0.316 µM
  IC50: 120 nM
Second compound 1 µM
  IC50: < 31.6 nM
Second compound 3.16 µM
  IC50: < 31.6 nM
Second compound 10 µM
  IC50: < 31.6 nM
[1]
  viability, T/C: 89.9%
[2]
  viability, T/C: 81.5%
[3]
  viability, T/C: 70.8%
[4]
  viability, T/C: 45.9%
[5]
  viability, T/C: 43.8%
[6]
  viability, T/C: 23.6%
[7]
  viability, T/C: 57.2%
[8]
  viability, T/C: 68.7%
[9]
  viability, T/C: 46.5%
[10]
  viability, T/C: 42.3%
[11]
  viability, T/C: 39.1%
[12]
  viability, T/C: 17.6%
[13]
  viability, T/C: 48.6%
[14]
  viability, T/C: 57.6%
[15]
  viability, T/C: 43.1%
[16]
  viability, T/C: 41.5%
[17]
  viability, T/C: 34%
[18]
  viability, T/C: 12.6%
[19]
  viability, T/C: 40.5%
[20]
  viability, T/C: 59.9%
[21]
  viability, T/C: 35.4%
[22]
  viability, T/C: 34.1%
[23]
  viability, T/C: 21.7%
[24]
  viability, T/C: 12.7%
[25]
  viability, T/C: 36.7%
[26]
  viability, T/C: 41.9%
[27]
  viability, T/C: 33.4%
[28]
  viability, T/C: 29.8%
[29]
  viability, T/C: 24.6%
[30]
  viability, T/C: 10.2%
[31]
  viability, T/C: 28.1%
[32]
  viability, T/C: 29.9%
[33]
  viability, T/C: 27.4%
[34]
  viability, T/C: 27.4%
[35]
  viability, T/C: 16.8%
[36]
  viability, T/C: 0.52%
